The numbers were not newly measured in US6747151B2, “Azo compounds for type I phototherapy” (Mallinckrodt, Inc., priority 2001, dated 2004), which cites them from elsewhere.

One data set deals with tumors. Particulars: after administration.
For a further data set, the system named is melanoma cells. Particulars: after administration.

As for `NCC(=O)CCC(=O)O` [delta-aminolevulinic acid], the “uptake of porphyrins in tumors compared to normal tissues” value with tumors was “two-fold”.
Turning to dihydroxyindole-2-carboxylic acid, the “levels of melanin in melanoma cells compared to normal cells” value in the data set with melanoma cells is listed as “substantially enhanced”.
